# From PubChem BioAssay (NCI)
#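 Step 1: Grow cells in 96-well plates. Step 2: Expose to compound for 48 hours at 5 concentrations. Step 3: Interpolate endpoints linearly; if unreached, use highest concentration. GI50 is the concentration that inhibits growth by half. TGI is the concentration that stops growth completely.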
# How the values were obtained:
# Experiment in all cases: growth of human tumour cells (NCI), 48 h
# [1] = test system: OVCAR-5 ovarian
# [2] = test system: EKVX NSCLC
# [3] = test system: TK-10 renal
# [4] = test system: A549 NSCLC
# [5] = test system: SK-MEL-5 melanoma
# [6] = test system: OVCAR-4 ovarian
# [7] = test system: HOP-92 NSCLC
# [8] = test system: COLO 205 colon
# [9] = test system: XF 498 CNS
# [10] = test system: K-562 leukemia
# [11] = test system: SNB-78 CNS
# [12] = test system: SNB-19 CNS
# [13] = test system: CCRF-CEM leukemia
# [14] = test system: DMS 273 small cell lung
# [15] = test system: KM20L2 colon
# [16] = test system: LXFL 529 NSCLC
# [17] = test system: SF-268 CNS
# [18] = test system: SNB-75 CNS
# [19] = test system: OVCAR-3 ovarian
# [20] = test system: M14 melanoma
# [21] = test system: NCI-H460 lung
# [22] = test system: HT29 colon
# [23] = test system: A498 renal
# [24] = test system: UO-31 renal
# [25] = test system: SK-OV-3 ovarian
# [26] = test system: SR leukemia
# [27] = test system: 786-0 renal
# [28] = test system: ACHN renal
# [29] = test system: SK-MEL-2 melanoma
# [30] = test system: HL-60(TB) leukemia
# [31] = test system: IGROV1 ovarian
# [32] = test system: OVCAR-8 ovarian
# [33] = test system: RPMI-8226 leukemia
# [34] = test system: LOX IMVI melanoma
# [35] = test system: HCT-116 colon
# [36] = test system: M19-MEL melanoma
# [37] = test system: DLD-1 colon
# [38] = test system: HCC-2998 colon
# [39] = test system: NCI-H522 lung
# [40] = test system: UACC-257 melanoma
# [41] = test system: NCI-H23 lung
# [42] = test system: SK-MEL-28 melanoma
# [43] = test system: U251 CNS
# [44] = test system: SF-539 CNS
# [45] = test system: SF-295 CNS
# [46] = test system: RXF 393 renal
# [47] = test system: NCI-H226 lung
# [48] = test system: HOP-62 NSCLC
# [49] = test system: UACC-62 melanoma
# [50] = test system: SN12C renal
# [51] = test system: MALME-3M melanoma
# [52] = test system: KM12 colon
# [53] = test system: MOLT-4 leukemia
compound,measurement,setting,value
CC[C@@]1(O)C(=O)OCc2c1cc1n(c2=O)Cc2cc3cccc(N)c3nc2-1,GI50,[1],25.8 µM
same,TGI,[1],> 100 µM
same,GI50,[2],33 µM
same,TGI,[2],> 100 µM
same,GI50,[3],> 100 µM
same,TGI,[3],> 100 µM
same,GI50,[4],7.32 µM
same,TGI,[4],> 100 µM
same,GI50,[5],8.75 µM
same,TGI,[5],> 100 µM
same,GI50,[6],7.57 µM
same,TGI,[6],> 100 µM
same,GI50,[7],> 100 µM
same,TGI,[7],> 100 µM
same,GI50,[8],13.9 µM
same,TGI,[8],> 100 µM
same,GI50,[9],27.3 µM
same,TGI,[9],82.1 µM
same,GI50,[10],> 100 µM
same,TGI,[10],> 100 µM
same,GI50,[11],> 100 µM
same,TGI,[11],> 100 µM
same,GI50,[12],5.77 µM
same,TGI,[12],50.3 µM
same,GI50,[13],1.07 µM
same,TGI,[13],> 100 µM
same,GI50,[14],1.78 µM
same,TGI,[14],8.48 µM
same,GI50,[15],26.2 µM
same,TGI,[15],> 100 µM
same,GI50,[16],> 100 µM
same,TGI,[16],> 100 µM
same,GI50,[17],2.51 µM
same,TGI,[17],> 100 µM
same,GI50,[18],2.72 µM
same,TGI,[18],16.1 µM
same,GI50,[19],66.8 µM
same,TGI,[19],> 100 µM
same,GI50,[20],9.27 µM
same,TGI,[20],> 100 µM
same,GI50,[21],1.38 µM
same,TGI,[21],11.2 µM
same,GI50,[22],> 100 µM
same,TGI,[22],> 100 µM
same,GI50,[23],7.17 µM
same,TGI,[23],60.3 µM
same,GI50,[24],8.44 µM
same,TGI,[24],> 100 µM
same,GI50,[25],5.13 µM
same,TGI,[25],29.7 µM
same,GI50,[26],0.478 µM
same,GI50,[27],2.38 µM
same,TGI,[27],8.72 µM
same,GI50,[28],2.81 µM
same,TGI,[28],10.3 µM
same,GI50,[29],29.7 µM
same,TGI,[29],65.6 µM
same,GI50,[30],3.52 µM
same,TGI,[30],> 100 µM
same,GI50,[31],11.5 µM
same,TGI,[31],38.8 µM
same,GI50,[32],12.1 µM
same,TGI,[32],> 100 µM
same,GI50,[33],> 100 µM
same,TGI,[33],> 100 µM
same,GI50,[34],4.19 µM
same,TGI,[34],37.2 µM
same,GI50,[35],16.8 µM
same,TGI,[35],> 100 µM
same,GI50,[36],13.1 µM
same,TGI,[36],> 100 µM
same,GI50,[37],> 100 µM
same,TGI,[37],> 100 µM
same,GI50,[38],16.6 µM
same,TGI,[38],48.1 µM
same,GI50,[39],3.92 µM
same,TGI,[39],> 100 µM
same,GI50,[40],> 100 µM
same,TGI,[40],> 100 µM
same,GI50,[41],5.81 µM
same,TGI,[41],31.5 µM
same,GI50,[42],> 100 µM
same,TGI,[42],> 100 µM
same,GI50,[43],3.03 µM
same,TGI,[43],18.8 µM
same,GI50,[44],3.7 µM
same,TGI,[44],17 µM
same,GI50,[45],4.04 µM
same,TGI,[45],23.5 µM
same,GI50,[46],7.1 µM
same,TGI,[46],94.7 µM
same,GI50,[47],2.57 µM
same,TGI,[47],27.9 µM
same,GI50,[48],2.36 µM
same,TGI,[48],6.24 µM
same,GI50,[49],4.74 µM
same,TGI,[49],31.7 µM
same,GI50,[50],3.58 µM
same,TGI,[50],> 100 µM
same,GI50,[51],84.5 µM
same,TGI,[51],> 100 µM
same,GI50,[52],> 100 µM
same,TGI,[52],> 100 µM
same,GI50,[53],2.35 µM
same,TGI,[53],> 100 µM
